Measured values as given in US9155714B2, “Compositions comprising an aromatic alcohol and a TRPV-1 antagonist, and uses thereof” (JOHNSON & JOHNSON CONSUMER INC., priority 2013, dated 2015).
Values joined by “and” are separate entries in the source; they are usually repeats but may differ in a detail not shown here. Equal values may be shown once. Each block holds one compound with its values, some of them ahead of it.

Assays:
Assay type in all cases: cell-based
[1] = molecular target: T1, human vanilloid receptor-1 (TRPV-1) (Homo sapiens, UniProt Q8NER1); experiment: Calcium Flux Test, phenoxyethanol replaced with capsaicin (capsaicin-induced calcium flux)
T1 construct: host or cells: HEK293
Experimental: (§1) The Calcium Flux Test is performed in the following manner: Recombinant HEK293 cells expressing human vanilloid receptor-1 (TRPV-1; accession number AF196175, EMD Millipore, Billerica, Mass.) are grown in D-MEM/F-12 media (Life Technologies, Grand Island, N.Y.) supplemented with 10% fetal bovine serum, 1% non essential amino acids and 400 μg/mL Geneticin (Gibco, Life Technologies). Cells are plated at a concentration of 15,000 cells per well on poly-D-lysine-coated 384 well plates and incubated overnight at 5% CO2 and 37° C. After incubation, culture media is removed from the wells and replaced with 50 μL per well of Fluo-8 No Wash dye solution (#36315, AAT Bioquest, Sunnyvale, Calif.). The Fluo-8 dye solution is prepared by mixing 20 uL of Fluo-8 NW with 30 mL of 0.33× Pluronic® F127 Plus (BASF of Ludwigshafen, Germany) in assay buffer (1×HBSS+2% of HEPES). Fluo-8 dye is incubated for 30 minutes at room temperature. Intracellular calcium (Ca^2+) flux is monitored upon exposure to aromatic alcohol in DMSO vehicle by measuring fluorescence intensity at Ex/Em 490/525 on a Functional Drug Screening System (FDSS; Hamamatsu, […]). Measurements are taken every second for a period of 4 minutes. […] Statistical differences are obtained using One Way ANOVA with Tukey Post-hoc test; statistical significance is defined as P≦0.05.
(§2) The Maximum RFU obtained with a given concentration of aromatic alcohol is compared with the Maximum RFU obtained using the same concentration of aromatic alcohol but pretreated with the TRPV-1 antagonist for 5 minutes after dye incubation. Percent inhibition achieved with the TRPV-1 antagonist is calculated as: 100*((Maximum RFU of aromatic alcohol−Maximum RFU of aromatic alcohol pretreated with TRPV-1 antagonist)/Maximum RFU of aromatic alcohol).
(§3) Capsazepine and AMG9810 were tested for activity as TRPV-1 antagonists using the Calcium Flux Test using two different concentrations of phenoxyethanol in DMSO. They were also tested using the Calcium Flux Test in which phenoxyethanol was replaced with capsaicin. […]

[2] = molecular target: T1, human vanilloid receptor-1 (TRPV-1); experiment: Calcium Flux Test, inhibition of phenoxyethanol-induced calcium flux
Experimental: as §1, §2, §3

[3] = molecular target: T1, human vanilloid receptor-1 (TRPV-1); experiment: Calcium Flux Test, activity as TRPV-1 agonist
Experimental: as §1
(§4) Phenoxyethanol was tested at a series of concentrations in DMSO for activity as a TRPV-1 agonist according to the Calcium Flux Test described above. Capsaicin was used as a positive control.
(§5) Maximum RFU values for treatment with phenoxyethanol or capsaisin were compared to the Maximum RFU for a DMSO vehicle alone. Concentrations of phenoxyethanol and capsaicin are reported in milimolar (mM) and nanomolar (nM), respectively.
(§6) Benzyl alcohol and sodium bicarbonate were tested using the Calcium Flux Test.
(§7) Benzyl alcohol and phenethyl alcohol were tested at a series of concentrations in DMSO for activity as a TRPV-1 agonist as described in Example 1. Concentrations of benzyl alcohol and phenethyl alcohol are reported in units of % w/v.

[4] = molecular target: T1, human vanilloid receptor-1 (TRPV-1); experiment: Calcium Flux Test, activity as TRPV-1 agonist; set-up: key: **: Statistically significant; n/s: Not statistically significant
Experimental: as §1, §4, §5, §6, §7

[5] = AMG9810 625 nM, capsaicin 100 nM
[6] = AMG9810 625 nM, capsaicin 300 nM
[7] = AMG9810 2500 nM, capsaicin 100 nM
[8] = AMG9810 2500 nM, capsaicin 300 nM
[9] = AMG9810 10000 nM, capsaicin 100 nM
[10] = AMG9810 10000 nM, capsaicin 300 nM
[11] = AMG9810 0.6104 nM, phenoxyethanol 2 mM
[12] = AMG9810 2 nM, phenoxyethanol 2 mM
[13] = AMG9810 10 nM, phenoxyethanol 2 mM
[14] = AMG9810 39 nM, phenoxyethanol 2 mM
[15] = AMG9810 39 nM, phenoxyethanol 3 mM
[16] = AMG9810 156 nM, phenoxyethanol 2 mM
[17] = AMG9810 156 nM, phenoxyethanol 3 mM
[18] = AMG9810 625 nM, phenoxyethanol 2 mM
[19] = AMG9810 625 nM, phenoxyethanol 3 mM
[20] = AMG9810 2500 nM, phenoxyethanol 2 mM
[21] = AMG9810 2500 nM, phenoxyethanol 3 mM
[22] = AMG9810 10000 nM, phenoxyethanol 2 mM
[23] = AMG9810 10000 nM, phenoxyethanol 3 mM

T1 sequence (Q8NER1 whole entry): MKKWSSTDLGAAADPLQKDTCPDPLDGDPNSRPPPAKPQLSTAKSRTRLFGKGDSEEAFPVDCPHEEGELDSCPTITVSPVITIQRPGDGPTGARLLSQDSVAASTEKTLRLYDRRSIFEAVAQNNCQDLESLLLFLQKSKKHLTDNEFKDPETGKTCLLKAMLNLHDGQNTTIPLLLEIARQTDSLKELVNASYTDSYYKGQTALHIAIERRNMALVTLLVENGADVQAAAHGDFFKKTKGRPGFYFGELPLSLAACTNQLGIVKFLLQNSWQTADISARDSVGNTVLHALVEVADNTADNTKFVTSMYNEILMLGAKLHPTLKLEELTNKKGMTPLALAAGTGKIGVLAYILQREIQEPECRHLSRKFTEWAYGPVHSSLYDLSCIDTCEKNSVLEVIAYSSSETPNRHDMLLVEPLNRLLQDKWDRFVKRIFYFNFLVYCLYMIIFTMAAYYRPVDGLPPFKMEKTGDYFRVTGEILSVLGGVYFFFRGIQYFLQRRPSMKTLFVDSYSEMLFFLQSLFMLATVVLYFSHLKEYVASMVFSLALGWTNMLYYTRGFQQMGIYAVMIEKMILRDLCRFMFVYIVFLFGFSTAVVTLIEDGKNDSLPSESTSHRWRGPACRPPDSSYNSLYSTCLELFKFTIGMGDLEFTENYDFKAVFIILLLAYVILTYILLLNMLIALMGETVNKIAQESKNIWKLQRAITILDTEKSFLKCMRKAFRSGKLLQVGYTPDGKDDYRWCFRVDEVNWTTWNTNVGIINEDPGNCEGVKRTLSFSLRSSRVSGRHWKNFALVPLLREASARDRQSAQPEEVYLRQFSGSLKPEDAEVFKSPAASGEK

- Maximum RFU (mean ± SD) ([1]; AMG9810 39 nM, capsaicin 100 nM): 942.69 ± 88.43 RFU
- Maximum RFU (mean ± SD) ([1]; AMG9810 39 nM, capsaicin 300 nM): 975.35 ± 32.01 RFU
- Maximum RFU (mean ± SD) ([1]; AMG9810 156 nM, capsaicin 100 nM): 916.79 ± 31.53 RFU
- Maximum RFU (mean ± SD) ([1]; AMG9810 156 nM, capsaicin 300 nM): 958.56 ± 16.66 RFU
- Maximum RFU (mean ± SD) [1, 5]: 735.36 ± 114.75 RFU
- inhibition at 0.625 µM [1, 5]: 13.4%
- Maximum RFU (mean ± SD) [1, 6]: 747.36 ± 77.35 RFU
- inhibition at 0.625 µM [1, 6]: 14.6%
- Maximum RFU (mean ± SD) [1, 7]: 85.41 ± 20.60 RFU
- inhibition at 2.5 µM [1, 7]: 90%
- Maximum RFU (mean ± SD) [1, 8]: 78.33 ± 46.56 RFU
- inhibition at 2.5 µM [1, 8]: 91%
- Maximum RFU (mean ± SD) [1, 9]: 47.00 ± 11.29 RFU
- inhibition at 10 µM [1, 9]: 94.5%
- Maximum RFU (mean ± SD) [1, 10]: 44.15 ± 2.20 RFU
- inhibition at 10 µM [1, 10]: 95%
- Maximum RFU (mean ± SD) ([2]; AMG9810 0.1526 nM, phenoxyethanol 2 mM): 261.54 ± 114.76 RFU
- Maximum RFU (mean ± SD) ([2]; AMG9810 0.1526 nM, phenoxyethanol 3 mM): 412.30 ± 110.68 RFU
- Maximum RFU (mean ± SD) [2, 11]: 189.72 ± 34.94 RFU
- inhibition at 0.0006104 µM [2, 11]: 12.3%
- Maximum RFU (mean ± SD) ([2]; AMG9810 0.6104 nM, phenoxyethanol 3 mM): 405.29 ± 152.93 RFU
- Maximum RFU (mean ± SD) [2, 12]: 202.96 ± 18.01 RFU
- inhibition at 0.002 µM [2, 12]: 6.2%
- Maximum RFU (mean ± SD) ([2]; AMG9810 2 nM, phenoxyethanol 3 mM): 265.02 ± 52.11 RFU
- Maximum RFU (mean ± SD) [2, 13]: 110.26 ± 27.80 RFU
- inhibition at 0.01 µM [2, 13]: 49%
- Maximum RFU (mean ± SD) ([2]; AMG9810 10 nM, phenoxyethanol 3 mM): 315.60 ± 125.77 RFU
- Maximum RFU (mean ± SD) [2, 14]: 165.37 ± 162.35 RFU
- inhibition at 0.039 µM [2, 14]: 23.6%
- Maximum RFU (mean ± SD) [2, 15]: 98.74 ± 23.34 RFU
- inhibition at 0.039 µM [2, 15]: 56%
- Maximum RFU (mean ± SD) [2, 16]: 58.21 ± 5.97 RFU
- inhibition at 0.156 µM [2, 16]: 73.1%
- Maximum RFU (mean ± SD) [2, 17]: 75.59 ± 10.97 RFU
- inhibition at 0.156 µM [2, 17]: 66.3%
- Maximum RFU (mean ± SD) [2, 18]: 55.53 ± 8.48 RFU
- inhibition at 0.625 µM [2, 18]: 74.3%
- Maximum RFU (mean ± SD) [2, 19]: 58.16 ± 1.97 RFU
- inhibition at 0.625 µM [2, 19]: 74.1%
- Maximum RFU (mean ± SD) [2, 20]: 58.00 ± 5.34 RFU
- inhibition at 2.5 µM [2, 20]: 73.2%
- Maximum RFU (mean ± SD) [2, 21]: 68.59 ± 4.15 RFU
- inhibition at 2.5 µM [2, 21]: 69.4%
- Maximum RFU (mean ± SD) [2, 22]: 59.78 ± 3.84 RFU
- inhibition at 10 µM [2, 22]: 72.4%
- Maximum RFU (mean ± SD) [2, 23]: 65.74 ± 4.33 RFU
- inhibition at 10 µM [2, 23]: 70.7%
SMILES: CC(C)(C)c1ccc(/C=C/C(=O)Nc2ccc3c(c2)OCCO3)cc1 [AMG9810, (E)-3-(4-t-butylphenyl)-N-(2,3-dihydrobenzo[b][1,4]dioxin-6-yl)acrylamide]

- intracellular calcium flux in TRPV-1-transfected HEK cells (result in words) [3]: dose dependent increases
- Maximum RFU (mean ± SD) ([3]; benzyl alcohol 0.25 mM (Example 7)): 64.45 ± 28.15 RFU
- Maximum RFU (mean ± SD) ([3]; benzyl alcohol 0.5 mM (Example 7)): 104.45 ± 12.50 RFU
- Maximum RFU (mean ± SD) ([3]; benzyl alcohol 1 mM (Example 7)): 113.51 ± 4.70 RFU
- Maximum RFU (mean ± SD) ([3]; benzyl alcohol 2 mM (Example 7)): 135.45 ± 12.15 RFU
- Maximum RFU (mean ± SD) ([3]; benzyl alcohol 4 mM (Example 7)): 362.51 ± 126.09 RFU
- P < 0.05 Compared to Vehicle ([4]; benzyl alcohol 0.25 mM): n/s
- P < 0.05 Compared to Vehicle ([4]; benzyl alcohol 0.5 mM): n/s
- P < 0.05 Compared to Vehicle ([4]; benzyl alcohol 1 mM): n/s
- P < 0.05 Compared to Vehicle ([4]; benzyl alcohol 2 mM): n/s
- P < 0.05 Compared to Vehicle ([4]; benzyl alcohol 4 mM): **
SMILES: OCc1ccccc1 [Benzyl Alcohol, benzyl alcohol]
- Maximum RFU ([3]; benzyl alcohol 0.000161 % w/v alone (no antagonist)): 10.95 ± 0.23 RFU and 8.44 RFU and 16.17 ± 1.16 RFU
- Maximum RFU ([3]; benzyl alcohol 0.004357 % w/v alone (no antagonist)): 43.91 ± 3.74 RFU and 31.54 RFU and 55.75 ± 2.68 RFU
- Maximum RFU ([3]; benzyl alcohol 0.013072 % w/v alone (no antagonist)): 160.8 ± 12.61 RFU and 93.35 RFU and 124.54 ± 13.18 RFU
- Maximum RFU ([3]; benzyl alcohol 0.04 % w/v alone (no antagonist)): 608.23 ± 10.21 RFU and 410.41 RFU and 424.01 ± 2.92 RFU
- Maximum RFU ([3]; benzyl alcohol 6.64E−07 % w/v alone (no antagonist)): 9.37 ± 1.66 RFU and 7.66 RFU and 13.85 ± 1.83 RFU
- activity for TRPV-1 activation (result in words) ([3]; doses of 2 mM and below, Example 7): did not show statistically significant activity

- Maximum RFU (mean ± SD) ([1]; compound 100 μM, capsaicin 300 nM): 825.37 ± 9.95 RFU
- Maximum RFU (mean ± SD) ([2]; compound 25 μM, phenoxyethanol 2 mM): 158.25 ± 0.69 RFU
- Maximum RFU (mean ± SD) ([2]; compound 25 μM, phenoxyethanol 3 mM): 312.62 ± 67.77 RFU
- Maximum RFU (mean ± SD) ([2]; compound 100 μM, phenoxyethanol 2 mM): 141.61 ± 33.91 RFU
- Maximum RFU (mean ± SD) ([2]; compound 100 μM, phenoxyethanol 3 mM): 195.47 ± 53.34 RFU
SMILES: CN(C)CCOC(c1ccccc1)c1ccccc1 [Diphenhydramine, diphenhydramine]
- reducing phenoxyethanol-induced calcium flux (result in words) ([2]; TRPV-1-expressing HEK293 cells): none of hydrocortisone, diphenhydramine or lidocaine were effective
